Measured values taken from US20070160684A1, “Methods for increasing cancer cell chemosensitivity” (priority 2005, published 2007).

Legend:
[1] = in a subject; cited from earlier work
[2] = tested on: Pa-4 and Pa-4/HMGA2 cells; assay: MTT cell viability assay; type: cell-based; details: Dox 0-7 μM or irinotecan 0-50 μM
[3] = tested on: HepG2, Hep3B, and CL48 cells; assay: MTT cell viability assay; type: cell-based; details: increasing concentrations, 72 hours
Procedure: MTT assays were conducted as described above to assess the effect of HGMA2 expression on the sensitivity of HepG2, Hep3B, and CL48 cells to Dox or cisplatin. […] To exclude the possibility that HMGA2 increases chemosensitization in general, Taxol-induced cell growth inhibition was measured in HeLa and HeLa/HMGA2 cells. Taxol is a microtubule stabilizing agent (Slichenmyer 1991) commonly used as a chemotherapeutic agent for combating breast and ovarian cancers.

[4] = tested on: Pa-4 cells; details: 4 mM caffeine or 1 μM Dox
[5] = tested on: pSer15-p53 and pThr68-Chk2; assay: Western analysis of p53 and Chk2 phosphorylation in parental and engineered HeLa cells; type: cell-based; details: Dox (2 μM), HeLa/HMGA2 and HeLa/HMGA2(2K/R) cells
Procedure: pSer15-p53 and pThr68-Chk2 profiles following exposure to Dox in parental and engineered HeLa cells were assessed. […] Intriguingly, there was a noticeable accumulation of pSer15-p53 at 6 hours post-treatment and attenuation of pThr68-Chk2 at 2 hours post-treatment in HeLa/HMGA2 cells, compared with Dox-treated HeLa and HeLa/HMGA2(2K/R) cells. Together with results set forth in Example 25, HMGA2 appears to disrupt DNA damage response by interfering with the activation of DNA-PKcs, ATM and Chk2.

[6] = tested on: caspase-3 and p53; assay: Western analysis of caspase-3 cleavage and p53 levels; type: cell-based; details: Dox
[7] = tested on: H2AX phosphorylation; assay: Western analysis of H2AX phosphorylation in HS578T and HCC1419 cells; type: cell-based; details: 2 μM Dox
Procedure: NU7026 (Calbiochem, San Diego, Calif.) was dissolved in DMSO at 5 mM and stored at −20° C. […] Cell lysates were removed and subjected to Western analyses using monoclonal anti-phospho-H2AX (Ser 139) antibodies. Control Western analyses were performed using monoclonal anti-actin antibodies.
Experiments were repeated using HS578T and HCC1419 cells treated with 2 μM rather than 1 μM Dox.

[8] = tested on: Pa-4 cells; assay: FACS cell cycle analysis (G2/M, sub-G1); type: cell-based
Procedure: (§1) Pa-4 and Pa-4/HMGA2 cells were seeded at 50-80% confluency in 35 mm dishes and serum starved overnight to synchronize cell cycle. Synchronized cells were treated with 1 μM Dox or vehicle for 24 hours, then fixed in 70% ethanol overnight and stained with 20 μg/ml propidium iodide. The percentage of cells in G1 versus G2/M was then determined by FACS analysis at the Norris Cancer Center Flow Cytometry Core Facility using FACSCaliber (Becton Dickinson, Franklin Lakes, N.J.).
(§2) Apoptosis of Pa-4 and Pa-4/HMGA2 cells was quantified by assessing the sub-G, cell population, a hallmark of cell apoptosis. The percentage of […] Pa-4/HMGA2 cells was increased five-fold 24 hours after Dox treatment, versus an increase of only two-fold in Pa-4 cells (FIG. 3A, panel e).

[9] = tested on: Pa-4/HMGA2 cells; assay: FACS cell cycle analysis (G2/M, sub-G1); type: cell-based
Procedure: as §1, §2

[10] = tested on: PUMA and NOXA transcriptional activation; assay: Quantitative real-time RT-PCR of PUMA and NOXA; type: cell-based; details: 2 μM Dox
[11] = tested on: H2AX phosphorylation; assay: Western analysis of H2AX phosphorylation in pEBS7, YZ5, and MO59J cells; type: cell-based; details: 2 μM Dox for 2 hours
Procedure: pEBS7, YZ5, and MO59J cells were treated with 2 μM Dox for 2 hours, at which point cell lysates were removed and subjected to Western analyses using anti-phospho-H2AX antibodies. Control Western analyses were performed using monoclonal anti-actin antibodies.

[12] = tested on: ATM Ser1981 phosphorylation; assay: Western analysis of ATM phosphorylation in Pa-4 and Pa-4/HMGA2 cells; type: cell-based; details: 2 μM Dox
[13] = tested on: HeLa and HeLa/HMGA2 cells; assay: MTT cell viability assay; type: cell-based; details: Dox 0-1 μM
Source text: HS578T, HCC1419, and CHO cells

[14] = tested on: HS578T, HCC1419, and CHO cells; assay: MTT cell viability assay; details: Dox 0 to 2.5 μM
[15] = tested on: Pa-4/HMGA2 cells; assay: FACS analysis after caffeine and Dox (G2/M, sub-G1); type: cell-based; details: 4 mM caffeine or 1 μM Dox
Procedure: Pa-4 and Pa-4/HMGA2 cells were seeded at 50-80% confluency in 35 mm dishes and serum starved overnight to synchronize cell cycle. […] Following treatment, cells were fixed in 70% ethanol overnight, stained with 20 μg/ml propidium iodide, and subjected to FACS analysis.
Apoptosis was quantified by assessing sub-G1 cell populations.

[16] = tested on: Ku70-deficient MEF cells and their wild-type counterparts; assay: MTT cell viability assay; type: cell-based; details: increasing concentrations, 72 hours
Procedure: To confirm the involvement of DNA-PK in mediating HMGA2 chemosensitization to Dox-induced DNA damage, MTT assays were conducted as described above on Ku70-deficient (Ku70^−/^−) MEF cells and their wild-type counterparts and on DNA-PKcs-deficient MO59J cells and DNA-PKcs-proficient MO59K cells.

[17] = tested on: ATM Ser1981 phosphorylation; assay: Western analysis of ATM phosphorylation in pEBS7 and YZ5 cells; type: cell-based; details: 2 μM Dox
Procedure: ATM-deficient pEBS7 cells and ATM-proficient YZ5 cells were maintained in DMEM and 10% FBS with 100 μg/ml hygromycin at 37° C. with 5% CO2. pEBS7 and YZ5 are stable clones derived from ATM-deficient fibroblasts (AT22IJE-T) with empty vector and Flag-tagged wild-type ATM, respectively (Li 2000). Cells were treated with 2 μM Dox or vehicle only. At various time points after treatment, equal amounts of protein lysates were removed and subjected to Western analyses using monoclonal anti-phospho-ATM antibodies (Ser1981) (Upstate Cell Signaling, Waltham, Mass.).

[18] = 1 μM Dox for 24 hours, synchronized cells

COc1cccc2c1C(=O)c1c(O)c3c(c(O)c1C2=O)C[C@@](O)(C(=O)CO)C[C@@H]3O[C@H]1C[C@H](N)[C@H](O)[C@H](C)O1 [Dox, doxorubicin]
maximum cumulative dosage limited by side effects [1]: 450 to 550 mg
difference in decrease of viability between Pa-4/HMGA2 and Pa-4 cells ([2]; 72 hours): much larger in Pa-4/HMGA2 cells than it was in Pa-4 cells
cell viability / growth inhibition ([2]; 72 hours after treatment): decreased cell viability in a dose-dependent manner in both Pa-4 and Pa-4/HMGA2 cells
sensitivity, HepG2 and Hep3B versus CL48 [3]: greater sensitivity to both Dox and cisplatin than HMGA2-underexpressing CL48 cells
apoptosis (sub-G1 cell population), single agent [4]: increase in apoptosis
cell cycle distribution / cells in G2/M, single agent ([4]; 48 hours): greatly increased the number of cells in G2/M phase
pSer15-p53 and pThr68-Chk2 signals [5]: caused induction of pSer15-p53 and pThr68-Chk2 signals
caspase-3 cleavage fragment [6]: increased in HeLa/HMGA2, HepG2 and Hs578T cells
steady-state p53 levels ([6]; HeLa, HeLa/HMGA2, CL48, and HepG2 cells): increased steady-state p53 levels
H2AX phosphorylation ([7]; HCC1419 cells): induced H2AX phosphorylation
H2AX phosphorylation ([7]; HS578T cells): no increase in H2AX phosphorylation following Dox treatment
percentage of cells in G2/M phase [8, 18]: 50.9%
increase in apoptosis (sub-G1 cell population) ([8]; 24 hours after Dox treatment): two-fold
percentage of cells in G2/M phase [9, 18]: 62.6%
increase in apoptosis (sub-G1 cell population) ([9]; 24 hours after Dox treatment): five-fold
transcriptional activation of PUMA and NOXA ([10]; CL48 and HepG2 cells): marked transcriptional activation of PUMA and NOXA at 8 hours after treatment
transcriptional activation of PUMA and NOXA ([10]; Hep3B cells and HeLa cells): modest induction if any
induction of H2AX phosphorylation ([11]; YZ5 cells and MO59J cells): substantial increase in H2AX phosphorylation following Dox treatment
induction of H2AX phosphorylation ([11]; pEBS7 cells): lack of Dox-mediated induction
ATM phosphorylation, Pa-4 versus Pa-4/HMGA2 [12]: roughly equal in Pa-4 and Pa-4/HMGA2 cells
ATM phosphorylation ([12]; Pa-4 cells): rapid phosphorylation of ATM
cell viability, HeLa/HMGA2 versus HeLa [13]: HMGA2 expression enhancing the chemosensitivity of cells to Dox
sensitivity to growth inhibition, HS578T versus HCC1419 and CHO ([14]; 72 hours): HS578T cells were substantially more sensitive to Dox-mediated growth inhibition than the other two cell types
cell viability ([14]; 72 hours after treatment): decreased cell viability in a dose-dependent manner in all three cell types
apoptosis (sub-G1 cell population), single agent [15]: substantially larger increase in Pa-4/HMGA2 cells
cell cycle distribution / cells in G2/M, single agent ([15]; 48 hours): greatly increased the number of cells in G2/M phase
viability, Ku70-deficient versus wild type [16]: marked decrease in viability
ATM Ser1981 phosphorylation [17]: detected between 0.5 and 2 hours after Dox treatment
